The source of these data is US12667580B2, “Retinoic acid precursor and anticancer drug composition comprising same” (INDUSTRIAL COOPERATION FOUNDATION JEONBUK NATIONAL …, priority 2021, dated 2026).

Series [1] in a line: Reactivity of RABA in the presence of H2O2 (1H NMR after incubation). It counts as physicochemical. The method, then: To evaluate the reactivity of the prepared RABA in the presence of H2O2, ^1H NMR of the RABA was taken after incubation in a 5 mM H2O2 solution.
The peaks at 7.3 and 7.8 ppm corresponding to aromatic protons disappeared, and new peaks at 6.8 and 7.1 ppm appeared. The peaks corresponding to benzylic proton were shifted from 5.1 ppm to 5.0 ppm. On the other hand, there was no peak shift in the RABA incubated in water without H2O2.

A short description of series [2]: Self-assembly of nanoparticles in water, particle size and SEM. It counts as physicochemical. The procedure:
RABA dissolved in tetrahydrofuran (THF) was added to water while stirring. During dilution in water, strong light scattering occurred due to the Tyndall phenomenon. […] The mean hydrodynamic diameter was measured to be ˜120 nm.
It was confirmed that the nanoparticles existed in a spherical colloidal state. In addition, an experiment was performed to confirm self-assembly of Compound 2, which is produced during the preparation process of RA and RABA.

The test system of series [3] is SW620 multicellular spheroids. The experiment in a line: Tumor penetration in multicellular spheroids. The following applies: 6 hours. It is filed as cell-based. An excerpt: Next, SW620 multicellular spheroids were used to evaluate the tumor penetration of Nile Red-loaded tRABA nanoparticles. […] This means that tRABA penetrated much deeper into the spheroids than RABA. From this, it could be confirmed that tRABA has excellent tumor penetration.

The next series concerns A549 cells. The experiment in a line: MTT cytotoxicity, A549. It counts as cell-based. The conditions noted are these: 24 hours, RA (210 mM), HBA (220 mM). The method, then:
Next, to evaluate the cytotoxicity of tRABA, a 3-(4,5-dimethylthiazol-2-yl)-2,5-diphenyltetrazolium bromide (MTT)) analysis was performed. The cell survival rate was measured 24 hours after A549 cells were treated with RA, HBA, and tRABA, and the results are shown in FIG. 8C.

Another series deals with GSH in A549 cells. The experiment in a line: Intracellular GSH levels. It counts as cell-based. Set-up: dose or concentration left out as unconfirmed. The method, then: Therefore, an experiment was conducted to measure intracellular GSH levels in A549 cells treated with tRABA.
The test system of series [4] is calreticulin (CRT) in A549 cells. The experiment in a line: CRT level by flow cytometry. It is filed as cell-based. The method, then: Next, since immunogenic apoptosis enhances immunogenicity and anticancer effects by releasing damage-associated molecular pattern (DAMP) substances during the cell dying process, an experiment was performed to confirm whether tRABA nanoparticles induce immunogenic cell death to improve immunogenicity. First, the expression levels of DAMPs such as calreticulin (CRT) and high mobility group box 1 (HMGB1) were confirmed as endoplasmic reticulum (ER) stress markers.
A general note: A flow cytometer gives signals particle by particle.

The subject of series [5] is HMGB1 released from A549 cells. Description: HMGB-1 release. It is filed as cell-based. The procedure: Next, since it is known that HMGB-1 is a nuclear protein that binds to DNA and is triggered by an apoptosis inducer and that in the late stage of apoptosis, cells are destroyed and HMGB-1 is released into the tumor microenvironment to induce dendritic cell maturation and antigen presentation, an experiment was performed to confirm the effect of tRABA nanoparticles on HMGB-1 release.

The subject of another series is tumor model mice. The experiment in a line: Tumor growth inhibition in tumor model mice. It is filed as in vivo, mouse. The conditions noted are these: i.v. on Days 1, 4, 7, 10, 13; RA 3 mg/kg, HBA 1.5 mg/kg, tRABA 5 mg/kg. The method, then: Next, the anticancer effect was evaluated by administering a therapeutic drug in the tumor model mice when the tumor size reached 50 mm^3. A therapeutic drug was intravenously administered on Days 1, 4, 7, 10, and 13 to the tumor model mice.

In the case of `CC1=C(/C=C/C(C)=C/C=C/C(C)=C/C(=O)OCc2ccc(B(O)O)cc2)C(C)(C)CCC1` [RABA], in series [1] (incubated in water without H2O2), the “stability in water (1H NMR peak shift)” value is recorded as “no peak shift”. Also, the “reactivity in the presence of H2O2 (1H NMR peak shift)” value in series [1] (incubation in a 5 mM H2O2 solution) is “a shift of the peak due to the release of HBA was observed”. For the same compound, in series [2] (THF solution added to water, SEM), the self-assembly into nanoparticles entry is “the nanoparticles were being formed well”. The same compound returned a mean hydrodynamic diameter in series [2] (nanoparticles in water) of about 120 nm. Besides, the “spheroid penetration (fluorescence)” value in series [3] is recorded as “weak fluorescence”.

Turning to `CC1=C(/C=C/C(C)=C/C=C/C(C)=C/C(=O)O)C(C)(C)CCC1` [RA, Retinoic acid], the “cell survival rate / cytotoxicity (MTT)” value in the series with A549 cells is on record as “the cell survival rate decreased”.

For the compound hydroxybenzyl alcohol [HBA], in the series on GSH in A549 cells, the “intracellular GSH levels” value is “no effect on the GSH levels”. For the same compound, in series [4], the “level of CRT” value is reported as “almost no effect”. Moreover, in series [5], the “level of HMGB-1” value was “did not affect the level of HMGB-1”. Also, the tumor growth inhibition entry with tumor model mice is recorded as “negligible inhibitory effect on tumor growth”.
